Each structure is given as a SMILES string.

By chromatographic logP is commonly meant lipophilicity estimated from chromatographic retention. Read a high chromatographic logP as higher lipophilicity.

A short description of this series: Log P by HPLC on reversed phase columns (EEC directive 79/831 Annex V.A8). The series is classed as physicochemical. The settings on record: for chromatographic logP: reversed phase HPLC columns, value in preparation example, method not marked. The gist of the method: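 Values come from retention times calibrated against alkan-2-ones (3–16 carbons) by linear interpolation, using reversed-phase LC-UV per EEC directive 79/831 Annex V.A8. Acetonitrile gradient 10–95% with 0.1% formic acid [a], 0.001 M ammonium acetate [b] or 0.1% phosphoric acid [c]; several values within one method separated by "+".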

[1] abbreviates: method marker [a] given with each value, Table 1.1, compounds of formula (I).
Where [2] appears, read: method [a]: LC-UV, acidic range, 0.1% formic acid in water and acetonitrile.

Turning to `COC(=O)C(CCSC)NC(=O)c1sc(Cl)c(Cl)c1C(F)F` (stereo not shown) [1.1069], the LogP under setting [1] was 3.52^[a].
The same measure, in the same setting: in the case of `COC(=O)C(C)(C)NC(=O)c1sc(Cl)c(Cl)c1C(F)F` [1.1070] it was 3.16^[a].
As to `O=C(NC1CCSC1=O)c1sc(Br)c(Br)c1F` (stereo not shown) [I.0006], the LogP under setting [2] was 2.84^[a].
Still for that read-out and setting: in the case of `O=C(N[C@H]1CCSC1=O)c1sc(Br)c(Br)c1F` [I.0017] it was 2.89^[a].
In the case of `Cc1c(C(=O)NC2CCSC2=O)sc(Cl)c1Br` (stereo not shown) [I.0023], the LogP (method [a]: LC-UV, acidic range, 0.1% formic acid in water and acetonitrile, listed as 1.0023) was 2.99^[a].
Compound `CCOC(=O)CNC(=O)c1sc(C#N)c(Br)c1C` [I.0024, ethyl N-[(4-bromo-5-cyano-3-methyl-2-thienyl)carbonyl]glycinate] came in with a chromatographic logP of 2.4.
Turning to `O=C(NC1CCOC1=O)c1sc(Br)c(Br)c1F` (stereo not shown) [I.0060], where the note is “method [a]: LC-UV, acidic range, 0.1% formic acid in water and acetonitrile, listed as 1.0060”, the LogP was 2.25^[a].
Take `O=C(NC1CCCNC1=O)c1sc(Br)c(Br)c1F` (stereo not shown) [I.0061]: under setting [2], the LogP is 2.01^[a].
The same measure, in the same setting: in the case of `CC[C@H](C)[C@H](NC(=O)c1sc(Cl)c(Br)c1C)C(=O)OC` [I.0123] it was 4.27^[a].
Take `CCSC(=O)C1(NC(=O)c2sc(Br)c(Br)c2I)CC1` [I.0139, S-ethyl 1-{[(4,5-dibromo-3-iodo-2-thienyl)carbonyl]amino}cyclopropanecarbothioate]: the chromatographic logP amounted to 3.96.
Consider `CC[C@H](C)[C@H](NC(=O)c1sc(Br)c(Br)c1F)C(=O)OC` [I.0141], for which, under setting [2], the LogP is 4.37^[a].
With `O=C(NC1(C(=O)O)CCC1)c1sc(Br)c(Br)c1F` [I.0172, 1-{[(4,5-dibromo-3-fluoro-2-thienyl)carbonyl]amino}cyclobutanecarboxylic acid], the chromatographic logP came to 2.57.
Regarding `O=C(NC1CCNC1=O)c1cc(Cl)c(Br)s1` (stereo not shown) [I.0218], the LogP under setting [2] was 1.71^[a].
Still for that read-out and setting: in the case of `O=C1CC(NC(=O)c2cc(Cl)c(Br)s2)CCN1` (stereo not shown) [I.0219] it was 1.77^[a].
Same read-out and setting: with `O=C(NC1CCOC1=O)c1cc(Cl)c(Br)s1` (stereo not shown) [I.0220] the figure was 2.09^[a].
On the same count and under the same terms, with `O=C1CC(NC(=O)c2cc(Cl)c(Br)s2)CN1` (stereo not shown) [I.0221] the figure was 1.71^[a].
`O=C(NC1CCNC1=O)c1cc(Br)c(Cl)s1` (stereo not shown) [I.0222]: the LogP under setting [2] was 1.73^[a].
On the same count and under the same terms, with `O=C1CC(NC(=O)c2cc(Br)c(Cl)s2)CCN1` (stereo not shown) [I.0223] the figure was 1.80^[a]; with `O=C(NC1CCOC1=O)c1cc(Br)c(Cl)s1` (stereo not shown) [I.0224], 2.14^[a]; with `O=C1CC(NC(=O)c2cc(Br)c(Cl)s2)CN1` (stereo not shown) [I.0225], 1.73^[a].
Regarding `O=C(O)CNC(=O)c1sc(Br)c(Br)c1F` [I.0227, N-[(4,5-dibromo-3-fluoro-2-thienyl)carbonyl]glycine], the chromatographic logP came to 1.97.
For the compound `CCC(C)C(NC(=O)c1sc(Br)c(Br)c1F)C(=O)O` (stereo not shown) [I.0235], the LogP under setting [2] is 3.40^[a].
`CCOC(=O)[C@H](CC(C)C)NC(=O)c1sc(Cl)c(Cl)c1C#N` [I.0279, ethyl N-[(4,5-dichloro-3-cyano-2-thienyl)carbonyl]leucinate]: the chromatographic logP came to 4.05.
Consider `CC[C@H](C)[C@H](NC(=O)c1sc(Br)c(Cl)c1C)C(=O)OC` [I.0322], for which the LogP under setting [2] was 4.25^[a].
Consider `COC(=O)[C@H](Cc1ccccc1)NC(=O)[C@H](CC(=O)O)NC(=O)c1sc(Br)c(Br)c1F` [I.0338], for which, under setting [2], the LogP was 2.98^[a].
Same read-out and setting: with `COC(=O)C(Cc1ccccc1)NC(=O)C(CC(=O)O)NC(=O)c1sc(Br)c(Cl)c1C` (stereo not shown) [I.0339] the figure was 3.09^[a]; with `COC(=O)[C@H](Cc1ccccc1)NC(=O)[C@H](CC(=O)O)NC(=O)c1sc(Cl)c(Br)c1C` [I.0340], 3.13^[a].
As for `CCOC(=O)CNC(=O)c1sc(Br)c(Br)c1F` [I.0449, ethyl N-[(4,5-dibromo-3-fluoro-2-thienyl)carbonyl]glycinate], the chromatographic logP stood at 2.97.
In the case of `COC(=O)C(Cc1ccccc1)NC(=O)C(CC(=O)O)NC(=O)c1sc(Cl)c(Cl)c1Br` (stereo not shown) [I.0487], the LogP under setting [2] is 3.23^[a].
For `COC(=O)[C@H](Cc1ccccc1)NC(=O)[C@H](CC(=O)O)NC(=O)c1sc(Br)c(Br)c1Cl` [I.0488], the LogP under setting [2] was 3.20^[a].
On the same count and under the same terms, in the case of `COC(=O)C(Cc1ccccc1)NC(=O)C(CC(=O)O)NC(=O)c1sc(C#N)c(Br)c1C` (stereo not shown) [I.0501] it was 2.70^[a]; in that of `O=C(N[C@H]1CCSC1=O)c1sc(Cl)c(Br)c1Cl` [I.0525], 3.28^[a]; in that of `CCOC(=O)C(C)(C)NC(=O)C(C)(C)NC(=O)c1sc(Cl)c(Br)c1Br` [I.0699], 3.94^[a].
Same read-out and setting: in the case of `O=C(NC1CCOC1=O)c1sc(Cl)c(Cl)c1C(F)F` (stereo not shown) [I.0747] it was 2.40^[a].
On the same count and under the same terms, with `Cc1c(C(=O)N[C@H]2CCOC2=O)sc(C#N)c1Br` [I.0761] the figure was 1.94^[a]; with `Cc1c(C(=O)N[C@H]2CCOC2=O)sc(Cl)c1Br` [I.0762], 2.45^[a]; with `Cc1c(C(=O)N[C@H]2CCOC2=O)sc(Br)c1Cl` [I.0763], 2.42^[a].
The compound `CCOC(=O)CNC(=O)c1sc(C)c(Cl)c1F` [I.0793, ethyl N-[(4-chloro-3-fluoro-5-methyl-2-thienyl)carbonyl]glycinate] yielded a chromatographic logP of 2.54.
Turning to `O=C(N[C@H]1CNC1=O)c1sc(Cl)c(Cl)c1Br` [I.0808], the LogP under setting [2] is 2.03^[a].
On to `N#Cc1c(C(=O)NC2CCOC2=O)sc(Cl)c1Cl` (stereo not shown) [I.0818], for which the LogP under setting [2] is 2.02^[a].
Consider `N#Cc1sc(C(=O)NC2CCOC2=O)c(Cl)c1Cl` (stereo not shown) [I.0819], for which, under setting [2], the LogP was 2.05^[a].
The same measure, in the same setting: with `Cc1c(C(=O)NC2CCOC2=O)sc(Cl)c1Br` (stereo not shown) [I.0820] the figure was 2.48^[a].
Regarding `Cc1c(C(=O)NC2CCSC2=O)sc(Cl)c1Br` (stereo not shown) [I.0821], the LogP (method [a]: LC-UV, acidic range, 0.1% formic acid in water and acetonitrile, listed as 1.0821) is 3.03^[a].
As for `Cc1c(C(=O)NC2CCSC2=O)sc(Br)c1Cl` (stereo not shown) [I.0822], under setting [2], the LogP was 3.46^[a].
As to `Cc1c(C(=O)NC2CCOC2=O)sc(Br)c1Cl` (stereo not shown) [I.0825], the LogP under setting [2] is 2.45^[a].
The same measure, in the same setting: in the case of `Cc1c(C(=O)NC2CCSC2=O)sc(C#N)c1Br` (stereo not shown) [I.0829] it was 2.45^[a]; in that of `O=C(NC1CCOC1=O)c1sc(Cl)c(Cl)c1Br` (stereo not shown) [I.0839], 2.63^[a].
Still for that read-out and setting: in the case of `Cc1c(C(=O)N[C@H]2CCSC2=O)sc(C#N)c1Br` [I.0866] it was 2.39^[a].
Same read-out and setting: with `O=C(N[C@H]1CCSC1=O)c1sc(Br)c(Br)c1Cl` [I.0867] the figure was 3.24^[a]; with `N#CC1(NC(=O)c2sc(Br)c(Br)c2Cl)CCC(C2CCCCC2)CC1` (stereo not shown) [I.0869], 6.46^[a]; with `N#CC1(NC(=O)c2sc(Br)c(Br)c2Cl)CCC(c2ccccc2)CC1` (stereo not shown) [I.0870], 4.97^[a].
Turning to `NC(=O)CNC(=O)c1sc(Br)c(Br)c1F` [I.0894, N-(2-amino-2-oxoethyl)-4,5-dibromo-3-fluorothiophene-2-carboxamide], the chromatographic logP came to 1.69.
On the same count and under the same terms, with `NC(=S)CNC(=O)c1sc(Br)c(Br)c1F` [I.0896, N-(2-amino-2-sulfanylideneethyl)-4,5-dibromo-3-fluorothiophene-2-carboxamide] the figure was 2.25.
`O=C(N[C@H]1CCOC1=O)c1sc(Cl)c(Cl)c1Br` [I.0931]: the LogP under setting [2] was 2.59^[a].
On the same count and under the same terms, with `O=C(N[C@H]1CCOC1=O)c1sc(Br)c(Br)c1Cl` [I.0932] the figure was 2.62^[a].
Still for that read-out and setting: in the case of `O=C(N[C@H]1CCCNC1=O)c1sc(Cl)c(Br)c1Cl` [I.0939] it was 2.29^[a].
As to `O=C(N[C@H]1CCCNC1=O)c1sc(Cl)c(Cl)c1Br` [I.0944], the LogP under setting [2] was 2.30^[a].
The same measure, in the same setting: in the case of `O=C(NC1CCCCNC1=O)c1sc(Cl)c(Cl)c1Br` (stereo not shown) [I.0945] it was 2.99^[a]; in that of `O=C(NC1CCOC1=O)c1sc(Cl)c(Br)c1Cl` (stereo not shown) [I.0949], 2.56^[a]; in that of `O=C(N[C@H]1CCCNC1=O)c1sc(Br)c(Br)c1F` [I.0950], 2.05^[a].
Same read-out and setting: with `O=C(NC1CCCCNC1=O)c1sc(Br)c(Br)c1F` (stereo not shown) [I.0951] the figure was 2.68^[a]; with `O=C(N[C@H]1CCCNC1=O)c1sc(Br)c(Br)c1Cl` [I.0956], 2.31^[a]; with `O=C(NC1CCCCNC1=O)c1sc(Br)c(Br)c1Cl` (stereo not shown) [I.0957], 2.99^[a].
Consider `O=C(NC1CCOC1=O)c1sc(Br)c(Br)c1F` (stereo not shown) [I.0958], for which the LogP (method [a]: LC-UV, acidic range, 0.1% formic acid in water and acetonitrile, listed as 1.0958) was 2.28^[a].
On to `O=C(NC1CCSC1=O)c1sc(Br)c(Br)c1Cl` (stereo not shown) [I.1005], for which, under setting [2], the LogP is 3.25^[a].
Same read-out and setting: in the case of `O=C(NC1CCSC1=O)c1sc(Cl)c(Cl)c1Br` (stereo not shown) [I.1006] it was 3.25^[a]; in that of `N#CC1(NC(=O)c2sc(Br)c(Br)c2F)CCC(c2ccccc2)CC1` (stereo not shown) [I.1009], 4.78^[a].
On the same count and under the same terms, in the case of `O=C(N[C@H]1CCSC1=O)c1sc(Cl)c(Cl)c1Br` [I.1011] it was 3.24^[a]; in that of `N#CC1(NC(=O)c2sc(Br)c(Br)c2F)CCC(C2CCCCC2)CC1` (stereo not shown) [I.1012], 6.13^[a].
As to `O=C(NC1CCOC1=O)c1sc(Br)c(Br)c1Cl` (stereo not shown) [I.1031], under setting [2], the LogP was 2.58^[a].
Still for that read-out and setting: in the case of `Cc1c(C(=O)NC2CCOC2=O)sc(C#N)c1Br` (stereo not shown) [I.1034] it was 1.92^[a].
For the compound `CCOC(=O)C(C)(C)NC(=O)c1sc(Cl)c(Cl)c1Br` [I.1062, ethyl N-[(3-bromo-4,5-dichloro-2-thienyl)carbonyl]-2-methylalaninate], the chromatographic logP was 4.24.
Consider `O=C(NC1CCOC1=O)c1sc(Br)c(Br)c1C(F)F` (stereo not shown) [I.1066], for which the LogP under setting [2] is 2.46^[a].
Still for that read-out and setting: with `N#Cc1c(Br)sc(C(=O)O)c1Cl` [II.001] the figure was 1.66^[a]; with `N#Cc1c(Cl)sc(C(=O)O)c1Cl` [II.002], 1.59^[a]; with `O=C(O)c1sc(Cl)c(Cl)c1C(F)F` [II.003], 2.39^[a].
